Test results reported in EP2605769B1, “BENZOQUINONE DERIVATIVES FOR THE TREATMENT OF MITCHONDRIAL EYE DISEASES” (Santhera Pharmaceuticals (Schweiz) AG, priority 2010, dated 2012).

Assays:
[1] = Cytotoxicity assay (WST-1); assay type: cell-based, human; settings: human, hepg2 cells, Hep-G2 cells, 24 hours exposure, read-out: TC50
Text: This assay investigates cytotoxicity which is defined as the cell-killing property of a chemical compound, independent from the mechanisms of cell death. The HepG2 hepatoblastoma cell line is one of the most common human cell lines for hepatotoxicity studies. […] This assay measures metabolic activity of living cells using the WST-1 cell proliferation reagent (Roche Diagnostics). The tetrazolium salt WST-1 is cleaved to water soluble formazan by cellular enzymes. An expansion in the number of viable cells results in an increase in the overall activity of mitochondrial dehydrogenases in the sample. This augmentation in enzyme activity leads to an increase in the amount of formazan dye formed, which directly correlates to the number of metabolically active cells in the culture. The formazan dye produced by metabolically active cells is directly quantified in a scanning multiwell spectrophotometer by measuring the absorbance of the formazan dye solution between 420 and 480 nm. Healthy HepG2 cells, when maintained in culture, continuously divide and multiply over time. A toxic chemical, regardless of site and mechanism of action, will interfere with this process and result in the reduction of the growth rate reflected in the cell number.
Experimental Procedure: Hep-G2 cells are seeded into a 96-well microplate and maintained in culture for 24 hours. They are then exposed to the test compound over a range of eight concentrations. After 24 hours exposure, the cells are incubated in presence of reagent WST-1 for 30 min before measuring the absorbance of the formazan dye formed. Cytotoxicity is expressed as a concentration dependent reduction of the conversion formazan dye formation due to a decrease in cell proliferation as compared to untreated cells. The TC50 (Toxic Concentration 50%), is defined as the concentration of tested compound required to reduce the cellular viability by 50% relative to the control culture. The lower the TC50 value, the higher is the cytotoxic potential of the test compound. […]

C57BL/6J mice = test: Mouse model of intravitreal rotenone injection, histopathology, second study with modified less invasive injection method; assay type: in vivo
Text: This mouse model is used to assess the therapeutic potential of compounds in eye disorders characterized by mitochondrial dysfunction such as LHON, DOA, macular degeneration, retinopathy, and complex I deficiency. It is a widely accepted in vivo model based on single-eye intravitreal injection of the mitochondrial complex I inhibitor rotenone in the adult mouse. Intravitreal injection of rotenone induces neurotoxicity through mitochondrial complex I dysfunction in the retina which is the main molecular dysfunction […]. […] Histological analysis includes quantitative measurement of the retinal thickness (whole retina and individual layers), RGC apoptosis and cell death, oxidative stress, glutamine synthetase expression, and gliosis. The non-injected eye is used as a within subject, i.e. intraindividual, control. Male wild-type C57BL/6J mice (7 weeks old, about 25 g body weight) are individually housed in Makrolon type II cages with standard bedding and free access to food and water under a regular 12-hours light-dark cycle (8 a.m. to 8 p.m.). […] The injection is performed over a period of 2 min and the needle is kept in place for an additional 3 min, after which it is gently removed. Sterile surgical glue (Histoacryl, BRAUN/Aesculap AG, Germany) is used to seal the site of injection and a sterile antimicrobial ophtalmic ointment (Neosporin, GlaxoSmithKline, UK) is applied to the injected eye to avoid any infection. […] The eye balls are removed, retinas are dissected, fixed for an additional 2 h at 4°C, incubated in PB 0.1 M and 30% sucrose overnight, frozen in optimal cutting temperature compound (O.C.T., Tissue-Tek, Miles Laboratories, Elkhart, IN, USA), sliced at 14 μm, and collected onto glass slides for immunostaining. Immunostaining is performed accordingly to conventional method using multiple primary antibodies. Fluorescent-conjugated secondary antibodies and DAPI are used for visualization under a fluorescence microscope. All procedures are performed in accordance with the Swiss regulation and under a license approved by the "Kantonales Veterinäramt Basel-Land". […] A modified, less invasive injection method was used to further minimize damage caused by the injection itself. […] At 400 mg/kg Compound IA, a clear significant protection was observed (269 μm; p = 0.03), whereas at 2000 mg/kg a strong protective trend was detected (258 μm; p = 0.06). […] Table 6 In Table 6, the histological data on 7 days post-injection is expressed as % of sham (DMSO) injected control ± SEM. […] The term IA 200 defines a treatment with Compound IA at a concentration of 200 mg/kg; […], IA 400 and IA 2000: define a treatment with Compound IA at 400 mg/kg and at 2000 mg/kg, respectively. Statistical significance relative to vehicle + rotenone group is expressed as p ≤ 0.05 (*). n designates the number of retinas per group.

[2] = rats, cited from earlier work
[3] = 200 mg/kg + rotenone, 7 days post-injection, ± SEM
[4] = 400 mg/kg + rotenone, 7 days post-injection, ± SEM
[5] = 2000 mg/kg + rotenone, 7 days post-injection, ± SEM
[6] = oral dose of 10 mg/kg, Torii et al.

`COC1=C(OC)C(=O)C(CCCCCCCCCC(C)(C)O)=C(C)C1=O` [Compound IC] gave a CC50 at 24 h [1] of 71.9 µM.

With `COC1=C(OC)C(=O)C(CCCCCCCCCCO)=C(C)C1=O` [Compound IA, Idebenone] the Gliosis (C57BL/6J mice; [3]) was 124.46 ± 7.37 * (n=7) % of sham (DMSO) injected control, the RGC number (C57BL/6J mice; [3]) was 62.53 ± 9.13 (n=7) % of sham (DMSO) injected control and the Retinal thickness (C57BL/6J mice; [3]) was 91.17 ± 5.72 (n=8) % of sham (DMSO) injected control. The Retinal thickness (C57BL/6J mice; 200 mg/kg, 7 days after rotenone-injection, sham about 300 µm, rotenone 220 µm) was 272 µm, the Gliosis (C57BL/6J mice; [4]) was 125.04 ±9.12 * (n=6) % of sham (DMSO) injected control and the RGC number (C57BL/6J mice; [4]) was 63.68 ± 5.98 * (n=6) % of sham (DMSO) injected control. For the same compound, the Retinal thickness (C57BL/6J mice; [4]) was 89.93 ± 2.16 * (n=6) % of sham (DMSO) injected control, the Retinal thickness (C57BL/6J mice; 400 mg/kg, 7 days after rotenone-injection, sham about 300 µm, rotenone 220 µm) was 269 µm and the Gliosis (C57BL/6J mice; [5]) was 129.86 ± 7.32 * (n=7) % of sham (DMSO) injected control. For the same compound, the RGC number (C57BL/6J mice; [5]) was 64.44 ± 4.56 * (n=8) % of sham (DMSO) injected control, the Retinal thickness (C57BL/6J mice; [5]) was 86.58 ± 2.51 (n=8) % of sham (DMSO) injected control and the Retinal thickness (C57BL/6J mice; 2000 mg/kg, 7 days after rotenone-injection, sham about 300 µm, rotenone 220 µm) was 258 µm. The brain- to-plasma ratio ([2]; oral 100 mg/kg, Nagai et al) was 1-2%, the “levels in the brain of total idebenone (including metabolites)” value [2, 6] was 10 ng/mL and the “plasma levels of total idebenone (including metabolites, by radioactivity)” value [2, 6] was “approximately 1000 ng/ml”.
